Results taken from US20230066011A1, “PYRROLOPYRIMIDINE DERIVATIVE, AND PHARMACEUTICAL COMPOSITION FOR PREVENTING OR TREATING PROTEIN KINASE-RELATED DISEASE COMPRISING SAME AS ACTIVE INGREDIENT” (VORONOI CO., LTD., priority 2019, published 2023).

Key:
Format in all cases: biochemical
[1] = target: LRRK2 (G2019S) (Homo sapiens, UniProt Q5S007, G2019S); assay: LRRK2 G2019S enzyme inhibition, ADP-Glo kinase assay; set-up: purchased SignalChem L10-12GG; settings: ATP 25 μM
Outline: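 IC50 derived from luminescent ADP-Glo readout against untreated solvent control, twelve final compound concentrations from 50 μM downward. Reaction: recombinant human LRRK2 G2019S enzyme, 25 μM ATP, substrate, pH 7.4 Tris buffer with MgCl2/BSA/DTT, 25° C. for 2 hours.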

[2] = target: LRRK2 (Homo sapiens, UniProt Q5S007); assay: LRRK2 enzyme inhibition, ADP-Glo kinase assay; set-up: purchased Invitrogen PR8604B; settings: ATP 10 μM
Protocol: To evaluate an inhibitory activity of the compound according to the present invention against LRRK2, LRRK2 (G2019S), DYRK1, CLK1, and TTK kinases, experiments were performed as follows.
Each of the Example compounds was reacted with a purified human LRRK2 (Invitrogen #PR8604B) enzyme to evaluate an ability to inhibit an enzyme using a method as described below. A composition of 40 mM Tris-HCl (pH 7.4), 20 mM MgCl2, 0.5 mg/mL BSA, and 50 μM DTT was used as a reaction buffer, and all reactions of test substances were performed in the reaction buffer. Each of the compounds was diluted […] from a 10 mM DMSO stock using a serial dilution method, and enzyme activities were measured at final compound concentrations of 50, 10, 2, 0.4, 0.08, 0.016, 0.0032, 0.00064, 0.000128, 0.0000256, 0.00000512, and 0.000001024 μM. In the test, purified ATP (10 μM) and an enzyme substrate (0.2 μg) were reacted with a human LRRK2 (25 ng) enzyme at 25° C. for 2 hours, and the enzyme activities were determined using an in vitro ADP-Glo™ kinase assay (Promega). An enzyme-activity reaction solution, an ADP-Glo reaction solution, and an enzyme-ability detection solution were reacted at a ratio of 2:2:1 to measure a degree of inhibition of the enzyme activity with luminescence. The degree of inhibition of the enzyme activity according to the treatment concentration of each of the compounds was calculated based on the fluorescence of the enzyme activity of the solvent control which was not treated with the compound. In this case, the concentration of each of the compounds inhibiting 50% of the enzyme activity was determined to be an IC50 (nM) value, and calculated using Prism (Version 5.01; GraphPad) software.

[3] = target: T1, human GST-DYRK1A (Homo sapiens, UniProt Q13627); assay: GST-DYRK1A enzyme inhibition, ADP-Glo kinase assay; settings: ATP 10 μM, GST-DYRK1A full length, read-out: DYRK1 IC50
T1 construct: purified human GST-DYRK1A (full length, Thermo Scientifics) enzyme; purchased Thermo Scientifics
Outline: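 Full-length enzyme (10 ng) was incubated with 10 μM ATP and a specific substrate for 1 h at 25 °C in 40 mM Tris-HCl pH 7.4, 20 mM MgCl2, 0.5 mg/mL BSA, 50 μM DTT. Luminescence was read against a solvent control, and IC50 values were derived from 3 data sets.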

[4] = target: T2, human GST-CLK1 (Homo sapiens, UniProt P49759); assay: GST-CLK1 enzyme inhibition, ADP-Glo kinase assay; settings: ATP 10 μM, GST-CLK1 129-end
T2 construct: purified human GST-CLK1 (129-end, SignalChem) enzyme; purchased SignalChem
Outline: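 ADP-Glo luminescence read-out, relative to untreated solvent control, gave IC50 (nM) from triplicate data sets. Reactions ran an hour at 25° C with 3 ng GST-CLK1 (residues 129-end), 10 μM ATP and specific substrate in Tris-HCl pH 7.4 buffer with MgCl2, BSA and DTT.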

Chain of LRRK2 (Q5S007 970-2527 limits assumed): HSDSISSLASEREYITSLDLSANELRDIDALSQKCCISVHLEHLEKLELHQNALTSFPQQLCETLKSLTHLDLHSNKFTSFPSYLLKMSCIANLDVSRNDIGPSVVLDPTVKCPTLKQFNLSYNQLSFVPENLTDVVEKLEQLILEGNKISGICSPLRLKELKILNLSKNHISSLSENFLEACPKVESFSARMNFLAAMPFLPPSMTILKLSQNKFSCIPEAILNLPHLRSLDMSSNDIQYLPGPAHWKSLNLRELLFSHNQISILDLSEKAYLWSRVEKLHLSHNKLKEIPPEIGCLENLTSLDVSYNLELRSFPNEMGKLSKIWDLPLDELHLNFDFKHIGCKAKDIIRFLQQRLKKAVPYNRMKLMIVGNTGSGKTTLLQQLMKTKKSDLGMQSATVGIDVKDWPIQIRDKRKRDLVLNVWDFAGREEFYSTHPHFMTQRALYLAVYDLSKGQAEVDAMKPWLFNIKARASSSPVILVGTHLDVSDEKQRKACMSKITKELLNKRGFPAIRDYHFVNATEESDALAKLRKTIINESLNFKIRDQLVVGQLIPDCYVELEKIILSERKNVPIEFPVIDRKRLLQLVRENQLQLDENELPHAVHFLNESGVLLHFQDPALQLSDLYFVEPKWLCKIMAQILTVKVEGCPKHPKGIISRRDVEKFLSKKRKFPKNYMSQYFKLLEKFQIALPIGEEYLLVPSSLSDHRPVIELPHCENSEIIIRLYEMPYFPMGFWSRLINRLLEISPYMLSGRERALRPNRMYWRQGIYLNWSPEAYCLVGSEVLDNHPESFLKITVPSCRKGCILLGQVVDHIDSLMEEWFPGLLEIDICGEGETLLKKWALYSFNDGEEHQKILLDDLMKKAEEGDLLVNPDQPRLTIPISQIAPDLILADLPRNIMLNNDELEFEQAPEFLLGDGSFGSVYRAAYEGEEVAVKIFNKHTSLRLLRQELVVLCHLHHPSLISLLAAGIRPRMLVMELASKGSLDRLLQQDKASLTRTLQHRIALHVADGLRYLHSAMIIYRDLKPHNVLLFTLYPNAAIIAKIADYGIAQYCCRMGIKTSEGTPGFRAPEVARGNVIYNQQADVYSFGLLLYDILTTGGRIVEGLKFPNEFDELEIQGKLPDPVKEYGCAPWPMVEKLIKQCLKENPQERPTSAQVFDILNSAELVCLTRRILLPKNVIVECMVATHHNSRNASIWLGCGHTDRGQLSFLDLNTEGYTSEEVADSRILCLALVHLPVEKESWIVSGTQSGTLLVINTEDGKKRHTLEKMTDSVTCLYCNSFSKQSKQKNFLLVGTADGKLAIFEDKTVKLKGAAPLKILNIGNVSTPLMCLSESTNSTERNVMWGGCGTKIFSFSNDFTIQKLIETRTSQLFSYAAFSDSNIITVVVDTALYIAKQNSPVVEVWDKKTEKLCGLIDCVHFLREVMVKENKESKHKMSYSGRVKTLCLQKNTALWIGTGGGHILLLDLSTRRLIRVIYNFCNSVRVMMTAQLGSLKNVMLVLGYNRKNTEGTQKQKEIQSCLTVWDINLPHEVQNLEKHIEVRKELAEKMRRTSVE
T2 sequence (P49759 129-484 limits assumed): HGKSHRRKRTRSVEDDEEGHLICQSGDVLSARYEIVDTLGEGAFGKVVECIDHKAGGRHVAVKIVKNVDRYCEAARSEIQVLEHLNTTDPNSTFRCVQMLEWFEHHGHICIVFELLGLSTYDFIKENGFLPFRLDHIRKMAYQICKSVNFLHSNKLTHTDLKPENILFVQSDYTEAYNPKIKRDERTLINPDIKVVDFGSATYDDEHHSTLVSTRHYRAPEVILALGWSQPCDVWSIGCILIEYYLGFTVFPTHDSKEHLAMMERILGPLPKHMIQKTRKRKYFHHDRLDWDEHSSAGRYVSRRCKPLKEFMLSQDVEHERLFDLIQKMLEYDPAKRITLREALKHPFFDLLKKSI
Chain of LRRK2 (G2019S) (Q5S007 970-2527 G2019S limits assumed): as the sequence (Q5S007 970-2527 limits assumed) above, with G1050S counted along it

SMILES | IC50 [1] | IC50 [2] | IC50 [3] | IC50 [4]
CCNc1nc(Nc2ccc(P3(=O)CCN(C4COC4)CC3)cc2OC)nc2[nH]cc(C(F)(F)F)c12 [Example 399, 4-(4-((4-(ethylamino)-5-(trifluoromethyl)-7H-pyrrolo[2,3-d]pyrimidin-2-yl)amino)-3-methoxyphenyl)-1-(oxetan-3-yl)-1,4-azaphosphinane 4-oxide] | – | < 100 nM | < 100 nM | < 100 nM
CCCNc1nc(Nc2ccc(P3(=O)CCN(C4CC4)CC3)cc2OC)nc2[nH]cc(C(F)(F)F)c12 [Example 401, 1-cyclopropyl-4-(3-methoxy-4-((4-(propylamino)-5-(trifluoromethyl)-7H-pyrrolo[2,3-d]pyrimidin-2-yl)amino)phenyl)-1,4-azaphosphinane 4-oxide] | – | < 100 nM | 301 to 1000 nM | 101 to 300 nM
COc1cc(P2(=O)CCN(C3CC3)CC2)ccc1Nc1nc(NC2CC2)c2c(C(F)(F)F)c[nH]c2n1 [Example 404, 1-cyclopropyl-4-(4-((4-(cyclo-propylamino) 5-(trifluoromethyl)-7H-pyrrolo[2,3-d]pyrimidin-2-yl)amino)3-methoxyphenyl)-1,4-azaphosphinane 4-oxide] | – | < 100 nM | < 100 nM | < 100 nM
CCNc1nc(Nc2ccc(C(=O)N3C[C@@H]4C[C@H]3CO4)c3c2OCCO3)nc2[nH]cc(C(F)(F)F)c12 [Example 409] | – | < 100 nM | < 100 nM | < 100 nM
O=C(c1ccc(Nc2nc(NCC3CCC3)c3c(C(F)(F)F)c[nH]c3n2)c2c1OCCO2)N1CCN(C2COC2)CC1 [Example 424, (8-((4-((cyclo-butylmethyl)amino)-5-(trifluoromethyl)-7H-pyrrolo[2,3-d]pyrimidin-2-yl)amino)-2,3-dihydrobenzo[b] [1,4]dioxin-5-yl) (4-(oxetan-3-yl)piperazin-1-yl)methanone] | – | < 100 nM | 301 to 1000 nM | 301 to 1000 nM
CNc1nc(Nc2ccc(P3(=O)CCN(C4CCOCC4)CC3)cc2OC)nc2[nH]cc(C(F)(F)F)c12 [Example 436, 4-(3-methoxy-4-((4-(methylamino)-5-(trifluoromethyl)-7H-pyrrolo[2,3-d]pyrimidin-2-yl)amino)phenyl)-1-(tetrahydro-2H-pyran-4-yl)-1,4-azaphosphinane 4-oxide] | – | < 100 nM | < 100 nM | < 100 nM
CC[C@H](C)Nc1nc(Nc2ccc(C(=O)N3CCC(N4CCOCC4)CC3)c3c2OCC3)nc2[nH]cc(C(F)(F)F)c12 [Example 452, (S)-(7-((4-(sec-butylamino)-5-(trifluoromethyl)-7H-pyrrolo[2,3-d]pyrimidin-2-yl)amino)-2,3-dihydrobenzo-furan-4-yl)(4-morpho-linopiperidin-1-yl)methanone] | – | < 100 nM | 101 to 300 nM | < 100 nM
O=C(c1ccc(Nc2nc(NC3CCCCC3)c3c(C(F)(F)F)c[nH]c3n2)c2c1CCO2)N1CCC(N2CCOCC2)CC1 [Example 460, (7-((4-(cyclo-hexylamino)-5-(trifluoromethyl)-7H-pyrrolo[2,3-d]pyrimidin-2-yl)amino)-2,3-dihydrobenzo-furan-4-yl)(4-morpho-linopiperidin-1-yl)methanone] | – | < 100 nM | 301 to 1000 nM | 301 to 1000 nM
C=CCNc1nc(Nc2ccc(S(=O)(=O)N3CCOCC3)cc2OC)nc2[nH]cc(C(F)(F)F)c12 [Example 474, N^4-allyl-N^2-(2-methoxy-4-(morpholino-sulfonyl)phenyl)-5-(trifluoromethyl)-7H-pyrrolo[2,3-d]pyrimidine-2,4-diamine] | – | 301 to 1000 nM | 301 to 1000 nM | 301 to 1000 nM

Results, then the compound that gave them:

IC50 [1] | IC50 [2] | IC50 [3] | IC50 [4] | SMILES
< 100 nM | < 100 nM | 301 to 1000 nM | 301 to 1000 nM | COCCNc1nc(Nc2ccc(S(=O)(=O)N3CCOCC3)cc2OC)nc2[nH]ccc12 [Example 19, N^2-(2-methoxy-4-(morpholinosulfonyl)phenyl)-N^4-(2-methoxyethyl)-7H-pyrrolo[2,3-d]pyrimidine-2,4-diamine]
< 100 nM | < 100 nM | 301 to 1000 nM | 301 to 1000 nM | CNc1nc(Nc2ccc(C(=O)N3CCOCC3)c3c2OCCO3)nc2[nH]ccc12 [Example 43, (8-((4-(methylamino)-7H-pyrrolo[2,3-d]pyrimidin-2-yl)amino)-2,3-dihydrobenzo[b][1,4]dioxin-5-yl)(morpholino)methanone]
< 100 nM | < 100 nM | 301 to 1000 nM | 301 to 1000 nM | CCNc1nc(Nc2ccc(C(=O)N3CCOCC3)c3c2OCCO3)nc2[nH]ccc12 [Example 58, (8-((4-(ethylamino)-7H-pyrrolo[2,3-d]pyrimidin-2-yl)amino)-2,3-dihydrobenzo[b][1,4]dioxin-5-yl)(morpholino)methanone 2,2,2-trifluoroacetate]
< 100 nM | < 100 nM | 301 to 1000 nM | < 100 nM | CNc1nc(Nc2ccc(S(=O)(=O)N3CCC(N4CCOCC4)CC3)cc2OC)nc2[nH]cc(C#N)c12 [Example 81, 2-((2-methoxy-4-((4-morpholinopiperidin-1-yl)sulfonyl)phenyl)amino)-4-(methylamino)-7H-pyrrolo[2,3-d]pyrimidine-5-carbonitrile]
< 100 nM | < 100 nM | 301 to 1000 nM | < 100 nM | COc1cc(S(=O)(=O)N2CCC(N3CCOCC3)CC2)ccc1Nc1nc(NCCS(C)(=O)=O)c2c(C#N)c[nH]c2n1 [Example 96, 2-((2-methoxy-4-((4-morpholinopiperidin-1-yl)sulfonyl)phenyl)amino)-4-((2-(methylsulfonyl)ethyl)amino)-7H-pyrrolo[2,3-d]pyrimidine-5-carbonitrile]
– | < 100 nM | 101 to 300 nM | 101 to 300 nM | CNc1nc(Nc2ccc(C(=O)N3CCC(N4CCOCC4)CC3)c3c2OCO3)nc2[nH]cc(C(F)(F)F)c12 [Example 215, (7-((4-(methylamino)-5-(trifluoromethyl)-7H-pyrrolo[2,3-d]pyrimidin-2-yl)amino)benzo[d][1,3]dioxol-4-yl)(4-morpholinopiperidin-1-yl)methanone]
– | < 100 nM | 301 to 1000 nM | 301 to 1000 nM | COc1cc(S(C)(=O)=O)ccc1Nc1nc(C2CC2)c2c(C#N)c[nH]c2n1 [Example 222, 4-cyclopropyl-2-((2-methoxy-4-(methylsulfonyl)phenyl)amino)-7H-pyrrolo[2,3-d]pyrimidine-5-carbonitrile]
– | < 100 nM | < 100 nM | < 100 nM | COCCNc1nc(Nc2ccc(C(=O)N3CCC(N4CCOCC4)CC3)c3c2OCCO3)nc2[nH]cc(C#N)c12 [Example 256, 4-((2-methoxyethyl)amino)-2-((8-(4-morpholinopiperidine-1-carbonyl)-2,3-dihydrobenzo[b][1,4]dioxin-5-yl)amino)-7H-pyrrolo[2,3-d]pyrimidine-5-carbonitrile]
– | < 100 nM | 101 to 300 nM | 101 to 300 nM | CCNc1nc(Nc2ccc(P3(=O)CCN(CC)CC3)cc2OC)nc2[nH]cc(C#N)c12 [Example 260, 2-((4-(1-ethyl-4-oxido-1,4-azaphosphinan-4-yl)-2-methoxyphenyl)amino)-4-(ethylamino)-7H-pyrrolo[2,3-d]pyrimidine-5-carbonitrile]
– | < 100 nM | 301 to 1000 nM | 301 to 1000 nM | CCNc1nc(Nc2ccc(C(=O)N3CCOCC3)c3c2OCO3)nc2[nH]cc(C#N)c12 [Example 277, 4-(ethylamino)-2-((7-(morpholine-4-carbonyl)benzo[d][1,3]dioxol-4-yl)amino)-7H-pyrrolo[2,3-d]pyrimidine-5-carbonitrile]
